Test results as given in PMC12557365 (Journal of Medicinal Chemistry, 2025).
Like-named read-outs stand apart in the source and are kept apart here.

Key:
in vitro [1] = settings: male, rat, microsomes
[2] = system: SARS-CoV-2 hCoV-19/Japan/TY/WK-521 strain; assay: microbe, parasite or virus in culture; format: cell-based; settings: Severe acute respiratory syndrome coronavirus 2, HEK-293T, read-out: HEK 293T-AT EC50
SARS-CoV-2 3CL^pro = SARS-CoV-2 3CL^pro (Severe acute respiratory syndrome coronavirus 2, UniProt P0DTD1); assay: biochemical; format: biochemical
in vitro [3] = settings: both, human, microsomes
in vivo [4] = settings: male, Sprague-Dawley, rat
in vitro [5] = settings: pig, LLC-PK1
in vivo [6] = settings: male, beagle, dog, iv, 0.1 mg/kg
in vivo [7] = settings: female, cynomolgus monkey, iv, 0.1 mg/kg
SARS-CoV-2 = assay: microbe, parasite or virus in culture; format: cell-based; settings: Severe acute respiratory syndrome coronavirus 2, A549
[8] = system: SARS-CoV-2 Omicron strains; assay: microbe, parasite or virus in culture; format: cell-based; settings: Severe acute respiratory syndrome coronavirus 2, Epithelial cell
P-gp [9] = biological target: T1, P-gp (Homo sapiens, UniProt P08183); settings: LLC-PK1
T1 sequence (P08183 whole entry): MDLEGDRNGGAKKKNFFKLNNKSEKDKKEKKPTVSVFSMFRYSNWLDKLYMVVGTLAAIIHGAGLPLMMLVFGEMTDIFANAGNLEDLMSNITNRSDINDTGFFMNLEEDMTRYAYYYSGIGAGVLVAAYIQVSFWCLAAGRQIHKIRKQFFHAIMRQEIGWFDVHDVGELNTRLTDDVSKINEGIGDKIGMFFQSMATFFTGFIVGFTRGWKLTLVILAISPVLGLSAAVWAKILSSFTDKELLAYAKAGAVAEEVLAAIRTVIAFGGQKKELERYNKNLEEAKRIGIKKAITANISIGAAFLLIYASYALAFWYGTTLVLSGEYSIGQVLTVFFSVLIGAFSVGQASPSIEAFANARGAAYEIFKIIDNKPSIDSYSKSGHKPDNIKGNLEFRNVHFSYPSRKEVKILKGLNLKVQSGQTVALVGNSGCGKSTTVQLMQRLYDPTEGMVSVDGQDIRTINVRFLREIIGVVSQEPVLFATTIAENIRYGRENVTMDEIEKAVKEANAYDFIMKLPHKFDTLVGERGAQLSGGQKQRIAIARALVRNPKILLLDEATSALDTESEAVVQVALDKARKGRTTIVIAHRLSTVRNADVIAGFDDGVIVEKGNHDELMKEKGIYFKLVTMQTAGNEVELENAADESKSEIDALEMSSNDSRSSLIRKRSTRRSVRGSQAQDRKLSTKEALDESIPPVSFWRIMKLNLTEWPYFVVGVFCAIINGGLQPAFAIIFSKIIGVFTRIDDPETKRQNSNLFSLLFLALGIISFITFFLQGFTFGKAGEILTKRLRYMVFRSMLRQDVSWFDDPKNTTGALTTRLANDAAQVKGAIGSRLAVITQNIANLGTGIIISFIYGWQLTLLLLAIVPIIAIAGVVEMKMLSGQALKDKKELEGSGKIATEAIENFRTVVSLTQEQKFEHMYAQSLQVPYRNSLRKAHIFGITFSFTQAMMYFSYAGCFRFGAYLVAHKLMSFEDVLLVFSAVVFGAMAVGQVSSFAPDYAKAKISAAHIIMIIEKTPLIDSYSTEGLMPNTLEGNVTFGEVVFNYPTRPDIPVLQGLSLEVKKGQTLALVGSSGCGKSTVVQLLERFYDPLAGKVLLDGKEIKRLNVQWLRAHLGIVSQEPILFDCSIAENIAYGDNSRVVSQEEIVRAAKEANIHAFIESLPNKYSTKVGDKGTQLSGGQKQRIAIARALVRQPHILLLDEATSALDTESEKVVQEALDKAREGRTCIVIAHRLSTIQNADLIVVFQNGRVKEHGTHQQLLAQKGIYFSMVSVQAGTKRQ

P-gp [10] = biological target: T1, P-gp; assay: in vitro; settings: LLC-PK1
HCoV-OC43 = assay: microbe, parasite or virus in culture; format: cell-based; settings: Betacoronavirus 1, OC43, MRC5, read-out: EC50 HCoV-OC43
HCoV-229E = assay: microbe, parasite or virus in culture; format: cell-based; settings: Human coronavirus 229E, MRC5, read-out: EC50 HCoV-229E
[11] = read-out: SARS-CoV-2 3CL^pro IC50

SMILES	remaining at 0.5 h (in vitro [1]) [%]	EC50 [2] [nM]	IC50 (SARS-CoV-2 3CL^pro) [nM]	remaining at 0.5 h (in vitro [3]) [%]	other results
Cc1cncc(-n2c(=O)nc(N3Cc4ccccc4C3)n(Cc3cc(F)c(F)c(F)c3)c2=O)c1 [Compound 1, 6-(Isoindolin-2-yl)-3-(5-methylpyridin-3-yl)-1-(3,4,5-trifluorobenzyl)-1,3,5-triazine-2,4(1H,3H)-dione]	19	264	143	49	–
Cc1cncc(-n2c(=O)[nH]c(N3Cc4ccccc4C3)c(Cc3cc(F)c(F)c(F)c3)c2=O)c1 [Compound 2, 6-(Isoindolin-2-yl)-3-(5-methylpyridin-3-yl)-5-(3,4,5-trifluorobenzyl)-pyrimidine-2,4(1H,3H)-dione]	36	1490	335	45	–
Cc1cncc(-n2c(=O)c(Cc3cc(F)c(F)c(F)c3)c(N3Cc4ccccc4C3)n(C)c2=O)c1 [Compound 3, 6-(Isoindolin-2-yl)-1-methyl-3-(5-methylpyridin-3-yl)-5-(3,4,5-trifluorobenzyl)-pyrimidine-2,4(1H,3H)-dione]	1	191	179	1	–
Cc1cncc(-n2c(=O)c(Cc3cc(F)c(F)c(F)c3)c(N3Cc4ccccc4C3)n(CC#N)c2=O)c1 [Compound 4, 2-(6-(Isoindolin-2-yl)-3-(5-methylpyridin-3-yl)-2,4-dioxo-5-(3,4,5-trifluorobenzyl)-3,4-dihydropyrimidin-1(2H)-yl)-acetonitrile]	3	4.94	–	1	IC50 (SARS-CoV-2 3CL^pro; [11]): 0.76 nM
Cc1cncc(-n2c(=O)c(Cc3cc(F)c(F)c(F)c3)c(N3CCCC3)n(CC#N)c2=O)c1 [Compound 5, 2-(3-(5-Methylpyridin-3-yl)-2,4-dioxo-6-(pyrrolidin-1-yl)-5-(3,4,5-trifluorobenzyl)-3,4-dihydropyrimidin-1(2H)-yl)-acetonitrile]	11	20.4	11.8	4	–
Cc1cncc(-n2c(=O)c(Cc3cc(F)c(F)c(F)c3)c(N3CCC(C(F)(F)F)CC3)n(CC#N)c2=O)c1 [Compound 6, 2-(3-(5-Methylpyridin-3-yl)-2,4-dioxo-5-(3,4,5-trifluorobenzyl)-6-(4-(trifluoromethyl)-piperidin-1-yl)-3,4-dihydropyrimidin-1(2H)-yl)-acetonitrile]	18	9.41	1.51	13	–
Cc1cncc(-n2c(=O)c(Cc3cc(F)c(F)c(F)c3)c(N3CC4(CCOCC4)C3)n(CC#N)c2=O)c1 [Compound 7, 2-(3-(5-Methylpyridin-3-yl)-2,4-dioxo-6-(7-oxa-2-azaspiro[3.5]-nonan-2-yl)-5-(3,4,5-trifluorobenzyl)-3,4-dihydropyrimidin-1(2H)-yl)-acetonitrile]	77	41.9	14	58	–
Cc1cncc(-n2c(=O)c(Cc3cc(F)c(F)c(F)c3)c(N3CC4(C3)CC(F)(F)C4)n(CC#N)c2=O)c1 [Compound 8, 2-(6-(6,6-Difluoro-2-azaspiro[3.3]-heptan-2-yl)-3-(5-methylpyridin-3-yl)-2,4-dioxo-5-(3,4,5-trifluorobenzyl)-3,4-dihydropyrimidin-1(2H)-yl)-acetonitrile]	62	14.4	5.63	36	–
Cc1cncc(-n2c(=O)c(Cc3cc(F)c(F)c(F)c3)c(N3CC4(CCOC4)C3)n(CC#N)c2=O)c1 [Compound 9, 2-(3-(5-Methylpyridin-3-yl)-2,4-dioxo-6-(6-oxa-2-azaspiro[3.4]-octan-2-yl)-5-(3,4,5-trifluorobenzyl)-3,4-dihydropyrimidin-1(2H)-yl)-acetonitrile]	81	18.4	8.37	58	–
N#CCn1c(N2CC3(CCOC3)C2)c(Cc2cc(F)c(F)c(F)c2)c(=O)n(-c2cncc(Cl)c2)c1=O [Compound 10, 2-(3-(5-Chloropyridin-3-yl)-2,4-dioxo-6-(6-oxa-2-azaspiro[3.4]-octan-2-yl)-5-(3,4,5-trifluorobenzyl)-3,4-dihydropyrimidin-1(2H)-yl)-acetonitrile]	54	25.3	8.27	17	–
Cc1cncc(-n2c(=O)c(Cc3ccc(F)c(F)c3)c(N3CC4(CCOC4)C3)n(CC#N)c2=O)c1 [Compound 11, 2-(5-(3,4-Difluorobenzyl)-3-(5-methylpyridin-3-yl)-2,4-dioxo-6-(6-oxa-2-azaspiro[3.4]-octan-2-yl)-3,4-dihydropyrimidin-1(2H)-yl)-acetonitrile]	71	41.8	19.6	55	–
Cc1cncc(-n2c(=O)c(Cc3ccccc3)c(N3CC4(CCOC4)C3)n(CC#N)c2=O)c1 [Compound 12, 2-(5-Benzyl-3-(5-methylpyridin-3-yl)-2,4-dioxo-6-(6-oxa-2-azaspiro[3.4]-octan-2-yl)-3,4-dihydropyrimidin-1(2H)-yl)-acetonitrile]	70	117	99.6	70	–
N#CCn1c(N2CC3(CCOC3)C2)c(-c2ccccc2)c(=O)n(-c2cncc(Cl)c2)c1=O [Compound 13, 2-(3-(5-Chloropyridin-3-yl)-2,4-dioxo-5-phenyl-6-(6-oxa-2-azaspiro[3.4]-octan-2-yl)-3,4-dihydropyrimidin-1(2H)-yl)-acetonitrile]	58	23.1	7.16	55	–
N#CCn1c(N2CC3(CCOC3)C2)c(-c2cccc(Cl)c2)c(=O)n(-c2cncc(Cl)c2)c1=O [Compound 14, 2-(5-(3-Chlorophenyl)-3-(5-chloropyridin-3-yl)-2,4-dioxo-6-(6-oxa-2-azaspiro[3.4]-octan-2-yl)-3,4-dihydropyrimidin-1(2H)-yl)-acetonitrile]	33	1.57	–	49	improvement of activity by substituents on the S2 phenyl group (SARS-CoV-2 3CL^pro): more than 10 -fold; IC50 (SARS-CoV-2 3CL^pro; [11]): 0.403 nM
N#CCn1c(N2CC3(CCOC3)C2)c(-c2ccc(F)c(Cl)c2)c(=O)n(-c2cncc(Cl)c2)c1=O [Compound 15, 2-(5-(3-Chloro-4-fluorophenyl)-3-(5-chloropyridin-3-yl)-2,4-dioxo-6-(6-oxa-2-azaspiro[3.4]-octan-2-yl)-3,4-dihydropyrimidin-1(2H)-yl)-acetonitrile]	58	4.48	0.493	55	improvement of activity by substituents on the S2 phenyl group (SARS-CoV-2 3CL^pro): more than 10 -fold
N#CCn1c(N2CC(F)(F)C2)c(-c2ccc(F)c(Cl)c2)c(=O)n(-c2cncc(Cl)c2)c1=O [Compound 16, 2-(5-(3-Chloro-4-fluorophenyl)-3-(5-chloropyridin-3-yl)-6-(3,3-difluoroazetidin-1-yl)-2,4-dioxo-3,4-dihydropyrimidin-1(2H)-yl)-acetonitrile]	83	7.79	2.36	89	–
N#CCn1c(N2CC(O)(C(F)(F)F)C2)c(-c2ccc(F)c(Cl)c2)c(=O)n(-c2cncc(Cl)c2)c1=O [Compound 18, 2-(5-(3-Chloro-4-fluorophenyl)-3-(5-chloropyridin-3-yl)-6-(3-hydroxy-3-(trifluoromethyl)-azetidin-1-yl)-2,4-dioxo-3,4-dihydropyrimidin-1(2H)-yl)-acetonitrile]	99	3.82	0.391	103	clearance (in vivo [4]; iv): 6.69 mL/min/kg; half-life (in vivo [4]; iv): 413 min; bioavailability (in vivo [4]; po, 1 umol/kg): 38%; Papp A→B (in vitro [5]): 1.26 ×10⁻⁶ cm/s; clearance (in vivo [6]): 4.59 mL/min/kg; half-life (in vivo [6]): 524 min; clearance (in vivo [7]): 19.7 mL/min/kg; half-life (in vivo [7]): 209 min
CC(C)(C)[C@H](NC(=O)C(F)(F)F)C(=O)N1C[C@H]2[C@@H]([C@H]1C(=O)N[C@H](C#N)C[C@@H]1CCNC1=O)C2(C)C [nirmatrelvir, reference compound]	–	–	–	–	EC50 (SARS-CoV-2): 47.5 ± 12.3 nM; EC90 [8]: 45.1 ± 21.2 nM; P-gp substrate assessment (P-gp [9]): P-gp substrates; Papp A→B (P-gp [10]): 0.908 ×10⁻⁶ cm/s; Papp B→A (P-gp [10]): 9.39 ×10⁻⁶ cm/s; Papp A→B (in vitro [5]): 0.615 ×10⁻⁶ cm/s; Papp B→A (in vitro [5]): 1.42 ×10⁻⁶ cm/s; EC50 (HCoV-OC43): 58.8 ± 12.2 nM; EC50 (HCoV-229E): 696 ± 210 nM
